We go through twelve compounds from ChEMBL document CHEMBL3860068, “Class II Phosphoinositide 3-Kinases as Novel Drug Targets” (J Med Chem, 2017).

Assay [1] has as its target T1, Phosphatidylinositol 4-phosphate 3-kinase C2 domain-containing subunit beta (Homo sapiens, UniProt O00750). Nature of the assay: Inhibition of PI3KC2beta (unknown origin) expressed in HEK293 cells using phosphatidylinositol and gamma-32P-ATP incubated for 20 mins by TLC assay or high-throughput membrane capture assay. The assay is classed as cell-based.
In assay [2] the target is T2, Phosphatidylinositol 3-kinase catalytic subunit type 3 (Homo sapiens, UniProt Q8NEB9). Nature of the assay: Inhibition of full length human recombinant VPS34 (unknown origin) using phosphatidylinositol and gamma-32P-ATP incubated for 20 mins by TLC assay or high-throughput membrane capture assay.
Assay [3] deals with T3, Phosphatidylinositol 4-phosphate 3-kinase C2 domain-containing subunit alpha (Homo sapiens, UniProt O00443). In words: Inhibition of PI3KC2alpha (unknown origin).
The target in assay [4] is T1, Phosphatidylinositol 4-phosphate 3-kinase C2 domain-containing subunit beta. In words: Inhibition of PI3KC2beta (unknown origin).
Assay [5] concerns the target T4, Phosphatidylinositol 3-kinase C2 domain-containing subunit gamma (Homo sapiens, UniProt O75747).
T4 sequence (O75747 whole entry): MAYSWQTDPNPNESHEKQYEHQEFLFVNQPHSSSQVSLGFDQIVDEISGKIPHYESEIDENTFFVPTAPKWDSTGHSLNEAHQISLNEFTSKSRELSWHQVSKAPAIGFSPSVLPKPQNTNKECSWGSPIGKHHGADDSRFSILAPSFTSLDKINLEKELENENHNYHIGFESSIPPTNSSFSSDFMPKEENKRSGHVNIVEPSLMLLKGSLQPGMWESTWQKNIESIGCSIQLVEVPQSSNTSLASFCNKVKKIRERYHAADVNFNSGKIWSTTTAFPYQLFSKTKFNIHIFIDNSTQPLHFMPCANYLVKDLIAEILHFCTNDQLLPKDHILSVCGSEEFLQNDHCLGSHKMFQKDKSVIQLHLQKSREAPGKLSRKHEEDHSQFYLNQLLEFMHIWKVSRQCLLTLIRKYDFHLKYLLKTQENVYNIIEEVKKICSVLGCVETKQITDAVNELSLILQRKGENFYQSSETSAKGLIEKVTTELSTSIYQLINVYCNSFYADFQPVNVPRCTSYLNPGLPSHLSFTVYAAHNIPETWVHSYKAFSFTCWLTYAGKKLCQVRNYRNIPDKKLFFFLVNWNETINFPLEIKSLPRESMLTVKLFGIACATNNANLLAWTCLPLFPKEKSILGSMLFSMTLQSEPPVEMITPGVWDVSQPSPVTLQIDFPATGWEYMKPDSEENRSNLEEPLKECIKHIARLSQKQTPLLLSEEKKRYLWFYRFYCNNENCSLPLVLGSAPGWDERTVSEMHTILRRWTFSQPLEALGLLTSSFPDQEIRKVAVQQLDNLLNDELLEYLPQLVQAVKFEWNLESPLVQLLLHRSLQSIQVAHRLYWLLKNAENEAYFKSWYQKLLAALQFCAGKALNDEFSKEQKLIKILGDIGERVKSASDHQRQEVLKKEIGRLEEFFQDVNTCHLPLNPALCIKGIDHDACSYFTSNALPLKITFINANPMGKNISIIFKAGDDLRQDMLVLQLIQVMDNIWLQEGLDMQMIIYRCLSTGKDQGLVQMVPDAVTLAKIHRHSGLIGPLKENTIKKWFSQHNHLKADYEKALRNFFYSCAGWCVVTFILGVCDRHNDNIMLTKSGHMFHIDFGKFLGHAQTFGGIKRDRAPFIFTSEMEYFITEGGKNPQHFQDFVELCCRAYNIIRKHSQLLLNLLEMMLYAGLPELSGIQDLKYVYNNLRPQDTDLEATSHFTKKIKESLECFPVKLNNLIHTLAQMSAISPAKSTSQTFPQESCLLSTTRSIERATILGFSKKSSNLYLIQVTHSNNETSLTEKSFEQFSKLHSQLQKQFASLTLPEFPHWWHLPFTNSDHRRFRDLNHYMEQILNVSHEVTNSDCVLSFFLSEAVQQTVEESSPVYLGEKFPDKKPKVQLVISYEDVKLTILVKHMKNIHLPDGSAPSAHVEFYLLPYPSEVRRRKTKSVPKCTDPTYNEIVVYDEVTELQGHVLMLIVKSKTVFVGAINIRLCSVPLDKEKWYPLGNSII
In words: Inhibition of PI3KC2gamma (unknown origin).

Assay [6] can be described thus: Inhibition of class 1 PI3K (unknown origin). Details: species or system Homo sapiens.
The nature of assay [7]: Inhibition of class 4 PI3K (unknown origin). Also on record: species or system Homo sapiens.
In assay [8] the target is Phosphatidylinositol 4,5-bisphosphate 3-kinase catalytic subunit gamma isoform (Homo sapiens, UniProt P48736). Nature of the assay: Inhibition of PI3Kgamma (unknown origin).
Assay [9] concerns the target T3, Phosphatidylinositol 4-phosphate 3-kinase C2 domain-containing subunit alpha. In words: Inhibition of PI3KC2alpha (unknown origin) expressed in HEK293 cells using phosphatidylinositol and gamma-32P-ATP incubated for 20 mins by TLC assay or high-throughput membrane capture assay. Type of assay: cell-based.
Assay [10] concerns the target T5, DNA-dependent protein kinase catalytic subunit (Homo sapiens, UniProt P78527). In words: Inhibition of DNA-PK (unknown origin).
Assay [11] deals with T3, Phosphatidylinositol 4-phosphate 3-kinase C2 domain-containing subunit alpha. In words: Inhibition of human recombinant PI3KC2alpha using substrate PI incubated for 1 hr by Adapta kinase assay.
In assay [12] the target is T1, Phosphatidylinositol 4-phosphate 3-kinase C2 domain-containing subunit beta. In words: Inhibition of human recombinant PI3KC2beta using substrate PI incubated for 1 hr by Adapta kinase assay.
Assay [13] addresses T2, Phosphatidylinositol 3-kinase catalytic subunit type 3. Nature of the assay: Inhibition of human recombinant Vps34 using substrate PI incubated for 1 hr by Adapta kinase assay.
Assay [14] shares this target. Nature of the assay: Inhibition of N-terminal tagged full-length human VPS34 by luciferase-luciferin-coupled chemiluminescence assay.
Assay [15] addresses T5, DNA-dependent protein kinase catalytic subunit. Nature of the assay: Inhibition of human DNA-PK by luciferase-luciferin-coupled chemiluminescence assay.

Molecules are shown by their SMILES. Where only a bound is given, the exact number is not on record here.

T3 sequence (O00443 whole entry, the tested form may be a part): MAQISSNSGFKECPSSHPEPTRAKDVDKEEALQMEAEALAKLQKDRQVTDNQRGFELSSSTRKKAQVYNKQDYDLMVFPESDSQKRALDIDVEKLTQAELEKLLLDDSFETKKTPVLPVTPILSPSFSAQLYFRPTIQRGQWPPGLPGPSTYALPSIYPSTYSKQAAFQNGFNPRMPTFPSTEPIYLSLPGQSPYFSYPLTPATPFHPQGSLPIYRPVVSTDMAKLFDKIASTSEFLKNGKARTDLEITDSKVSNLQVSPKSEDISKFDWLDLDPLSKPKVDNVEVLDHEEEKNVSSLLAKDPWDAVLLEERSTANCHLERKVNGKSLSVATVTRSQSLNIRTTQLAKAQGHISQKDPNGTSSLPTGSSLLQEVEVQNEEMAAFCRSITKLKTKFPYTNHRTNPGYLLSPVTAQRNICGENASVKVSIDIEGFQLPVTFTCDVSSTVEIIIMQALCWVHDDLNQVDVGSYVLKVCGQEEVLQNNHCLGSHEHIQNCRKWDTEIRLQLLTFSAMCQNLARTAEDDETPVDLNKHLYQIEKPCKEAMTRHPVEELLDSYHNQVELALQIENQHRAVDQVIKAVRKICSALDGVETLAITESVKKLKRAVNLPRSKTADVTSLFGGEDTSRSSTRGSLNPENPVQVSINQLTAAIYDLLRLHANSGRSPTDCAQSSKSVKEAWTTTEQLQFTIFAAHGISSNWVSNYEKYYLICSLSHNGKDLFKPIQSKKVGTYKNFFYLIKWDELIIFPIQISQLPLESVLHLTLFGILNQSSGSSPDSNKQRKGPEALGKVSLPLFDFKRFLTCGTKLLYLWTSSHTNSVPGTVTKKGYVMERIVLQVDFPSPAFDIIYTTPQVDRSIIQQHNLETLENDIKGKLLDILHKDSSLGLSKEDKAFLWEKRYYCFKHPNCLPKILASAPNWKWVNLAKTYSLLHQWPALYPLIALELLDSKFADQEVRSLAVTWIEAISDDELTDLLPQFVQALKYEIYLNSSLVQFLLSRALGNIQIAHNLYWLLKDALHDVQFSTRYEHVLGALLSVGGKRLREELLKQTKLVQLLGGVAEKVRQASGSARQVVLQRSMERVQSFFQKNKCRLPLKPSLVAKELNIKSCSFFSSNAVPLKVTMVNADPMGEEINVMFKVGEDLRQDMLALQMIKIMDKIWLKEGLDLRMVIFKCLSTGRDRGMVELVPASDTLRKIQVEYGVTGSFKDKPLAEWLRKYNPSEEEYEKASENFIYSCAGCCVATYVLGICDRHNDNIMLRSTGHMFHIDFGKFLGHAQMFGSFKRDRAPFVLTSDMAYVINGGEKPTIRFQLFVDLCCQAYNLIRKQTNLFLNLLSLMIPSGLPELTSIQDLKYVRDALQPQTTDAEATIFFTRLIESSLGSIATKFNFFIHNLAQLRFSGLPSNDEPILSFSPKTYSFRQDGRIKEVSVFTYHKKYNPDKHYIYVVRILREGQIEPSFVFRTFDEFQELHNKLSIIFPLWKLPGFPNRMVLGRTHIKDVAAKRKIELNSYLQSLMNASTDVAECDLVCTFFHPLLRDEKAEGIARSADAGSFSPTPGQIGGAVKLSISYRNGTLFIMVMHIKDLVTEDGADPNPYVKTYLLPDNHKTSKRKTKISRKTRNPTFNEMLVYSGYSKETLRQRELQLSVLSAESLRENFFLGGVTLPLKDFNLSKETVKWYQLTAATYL
T2 sequence (Q8NEB9 whole entry, the tested form may be a part): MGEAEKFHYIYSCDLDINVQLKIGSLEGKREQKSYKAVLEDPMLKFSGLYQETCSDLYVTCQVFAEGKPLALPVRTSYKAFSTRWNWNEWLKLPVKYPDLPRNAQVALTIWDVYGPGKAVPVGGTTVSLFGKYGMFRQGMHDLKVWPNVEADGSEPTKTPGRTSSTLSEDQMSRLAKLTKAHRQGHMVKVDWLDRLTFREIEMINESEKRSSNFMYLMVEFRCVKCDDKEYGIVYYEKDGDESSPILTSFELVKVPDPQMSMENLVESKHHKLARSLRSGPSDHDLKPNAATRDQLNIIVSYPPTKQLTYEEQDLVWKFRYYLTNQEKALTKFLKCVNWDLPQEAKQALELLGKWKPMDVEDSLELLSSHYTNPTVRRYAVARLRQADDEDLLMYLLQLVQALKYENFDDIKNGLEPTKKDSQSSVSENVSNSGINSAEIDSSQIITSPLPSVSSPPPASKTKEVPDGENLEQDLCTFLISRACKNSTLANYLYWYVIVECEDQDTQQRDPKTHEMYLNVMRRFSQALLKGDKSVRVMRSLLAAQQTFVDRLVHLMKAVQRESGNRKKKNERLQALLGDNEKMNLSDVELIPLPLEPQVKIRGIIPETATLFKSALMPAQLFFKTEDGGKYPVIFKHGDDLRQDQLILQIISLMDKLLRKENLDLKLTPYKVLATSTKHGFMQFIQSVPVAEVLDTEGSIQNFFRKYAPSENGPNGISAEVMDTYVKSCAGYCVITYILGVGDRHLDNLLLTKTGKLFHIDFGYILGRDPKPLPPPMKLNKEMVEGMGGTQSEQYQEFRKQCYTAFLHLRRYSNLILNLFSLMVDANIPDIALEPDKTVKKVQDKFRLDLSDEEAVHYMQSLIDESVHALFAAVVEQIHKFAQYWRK
T1 sequence (O00750 whole entry, the tested form may be a part): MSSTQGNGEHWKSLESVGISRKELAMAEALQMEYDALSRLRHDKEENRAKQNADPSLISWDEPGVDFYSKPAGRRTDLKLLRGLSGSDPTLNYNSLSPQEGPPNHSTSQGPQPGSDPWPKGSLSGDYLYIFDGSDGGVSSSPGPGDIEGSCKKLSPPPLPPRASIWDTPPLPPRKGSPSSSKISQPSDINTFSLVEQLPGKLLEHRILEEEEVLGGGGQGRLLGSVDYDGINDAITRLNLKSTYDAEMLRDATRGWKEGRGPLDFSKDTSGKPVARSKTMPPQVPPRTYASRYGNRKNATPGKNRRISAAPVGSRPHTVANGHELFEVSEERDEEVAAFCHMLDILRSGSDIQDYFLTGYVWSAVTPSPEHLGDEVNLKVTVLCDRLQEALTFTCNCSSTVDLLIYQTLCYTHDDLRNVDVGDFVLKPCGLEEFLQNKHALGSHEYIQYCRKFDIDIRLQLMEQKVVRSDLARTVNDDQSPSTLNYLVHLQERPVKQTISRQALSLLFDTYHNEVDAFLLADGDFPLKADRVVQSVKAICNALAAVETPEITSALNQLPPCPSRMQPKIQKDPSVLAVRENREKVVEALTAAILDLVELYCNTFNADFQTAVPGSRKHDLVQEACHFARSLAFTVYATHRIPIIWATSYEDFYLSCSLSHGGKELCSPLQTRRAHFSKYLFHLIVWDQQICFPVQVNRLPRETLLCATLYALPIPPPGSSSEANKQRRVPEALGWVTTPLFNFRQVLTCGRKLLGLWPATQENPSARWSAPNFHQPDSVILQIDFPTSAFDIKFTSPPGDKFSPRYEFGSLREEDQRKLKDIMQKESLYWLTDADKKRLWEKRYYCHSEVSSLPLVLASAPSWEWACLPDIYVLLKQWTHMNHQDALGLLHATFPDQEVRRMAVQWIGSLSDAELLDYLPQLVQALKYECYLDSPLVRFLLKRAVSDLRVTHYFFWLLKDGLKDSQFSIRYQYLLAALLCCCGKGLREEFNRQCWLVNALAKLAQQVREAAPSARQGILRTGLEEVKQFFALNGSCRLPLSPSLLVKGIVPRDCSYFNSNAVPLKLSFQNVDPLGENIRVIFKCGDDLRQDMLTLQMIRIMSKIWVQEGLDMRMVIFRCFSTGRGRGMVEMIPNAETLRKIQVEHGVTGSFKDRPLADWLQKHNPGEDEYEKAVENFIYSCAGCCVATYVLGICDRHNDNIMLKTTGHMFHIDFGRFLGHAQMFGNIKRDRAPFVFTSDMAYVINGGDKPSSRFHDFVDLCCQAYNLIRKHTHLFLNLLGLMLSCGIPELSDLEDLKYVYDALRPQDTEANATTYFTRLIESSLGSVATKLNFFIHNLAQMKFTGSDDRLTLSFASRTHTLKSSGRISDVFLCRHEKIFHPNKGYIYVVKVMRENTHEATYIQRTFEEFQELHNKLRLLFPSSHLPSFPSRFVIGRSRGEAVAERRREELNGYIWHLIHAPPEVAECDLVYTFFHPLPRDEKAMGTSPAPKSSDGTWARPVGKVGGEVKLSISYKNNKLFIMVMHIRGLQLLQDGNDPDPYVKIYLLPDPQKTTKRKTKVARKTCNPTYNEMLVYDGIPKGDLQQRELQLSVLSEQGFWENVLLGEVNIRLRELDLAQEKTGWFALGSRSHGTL

Turning to `CC(=O)Nc1nc(C)c(-c2ccc(Cl)c(S(=O)(=O)NCCO)c2)s1`, the IC50 – broadly, the midpoint of a concentration-inhibition curve – was 14 µM in assay [1] and 0.32 µM in assay [2].
Regarding `COc1ccc2c(c1OC)N=C(NC(=O)c1cccnc1)N1CCN=C21`, the IC50 in assay [2] was found to be 0.83 µM.
As for `CS(=O)(=O)N1CCN(Cc2cc3nc(-c4cccc5[nH]ncc45)nc(N4CCOCC4)c3s2)CC1` [PICTILISIB], the IC50 in [3] is over 10 µM.
Take `C[C@@H]1COCCN1c1cc(=O)n2c(n1)N(Cc1cncc(Cl)c1)[C@H](C(F)(F)F)CC2`: the IC50 in assay [3], in [4], in assay [5], in assay [6] and in [7] was over 10 µM each time.
For the compound `CC(=O)Nc1ccc2nc(-c3cccc(NS(=O)(=O)c4ccccc4)c3)nc(N3CCOCC3)c2c1`, the IC50 in assay [6] is over 10 µM; in assay [7], over 100 µM.
`Nc1ncc(-c2ccnc(Nc3ccncc3)n2)c(CC2CC2)n1`: the IC50 is over 9.1 µM in assay [7] and 3 µM in [8].
In the case of `O=C1NC(=S)S/C1=C\c1ccc2c(c1)N(Cc1ccc(F)c(Cl)c1)C(=O)CO2`, the IC50 in [9] came out at 0.14 µM; in assay [1] it was 0.37 µM; in assay [2] it was 10 µM; in [10], 1.5 µM.
`Cn1c(=O)n(-c2ccc(C(C)(C)C#N)cc2)c2c3cc(-c4cnc5ccccc5c4)ccc3ncc21` [DACTOLISIB]: the IC50 in assay [11] turned out to be 0.034 µM; in [12] it was 0.044 µM; in assay [13], 0.45 µM.
For the compound `FC(F)c1nc2ccccc2n1-c1nc(N2CCOCC2)nc(N2CCOCC2)n1` [ZSTK-474], the IC50 in [13] is over 100 µM.
For `CC(C)(O)CNc1ncc(-c2ccnc(Nc3ccnc(Cl)c3)n2)c(CC2CC2)n1`, the IC50 is over 10 µM in assay [3]; over 10 µM in assay [4]; over 10 µM in assay [5]; over 10 µM in [6]; over 1 µM in [7].
Consider `COc1ccc(Cl)c(Nc2nc3ccccc3nc2NS(=O)(=O)c2cccc(NC(=O)C(C)(C)N)c2)c1` [PILARALISIB], for which the IC50 in [14] amounted to 7 µM; in [15], 4.8 µM.
Take `CC(=O)Nc1ccc2nc(-c3cccc(NS(=O)(=O)c4ccc5ccccc5c4)c3)nc(N3CCOCC3)c2c1`: the IC50 in assay [6] was over 10 µM; in assay [7], over 100 µM.
